Target: human NaV1.8 (Homo sapiens (Human), UniProt Q9Y5Y9)
Assay: Nav1.8 Qube automated patch-clamp assay
Type: cell-based
Conditions: human NaV1.8 stably expressed in HEK 293 cells; automated 384-well patch-clamp; resting or inactivated state not specified
In short: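 Human NaV1.8 in HEK293 cells, automated whole-cell patch clamp at room temperature: 1 Hz train of ten 20 ms pulses to 10 mV from −90 mV, repolarization to −67 mV. First- and tenth-pulse peak currents gave resting and inactivated-state IC50 values via Hill fits.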

Sequence of human NaV1.8 (Q9Y5Y9 whole entry): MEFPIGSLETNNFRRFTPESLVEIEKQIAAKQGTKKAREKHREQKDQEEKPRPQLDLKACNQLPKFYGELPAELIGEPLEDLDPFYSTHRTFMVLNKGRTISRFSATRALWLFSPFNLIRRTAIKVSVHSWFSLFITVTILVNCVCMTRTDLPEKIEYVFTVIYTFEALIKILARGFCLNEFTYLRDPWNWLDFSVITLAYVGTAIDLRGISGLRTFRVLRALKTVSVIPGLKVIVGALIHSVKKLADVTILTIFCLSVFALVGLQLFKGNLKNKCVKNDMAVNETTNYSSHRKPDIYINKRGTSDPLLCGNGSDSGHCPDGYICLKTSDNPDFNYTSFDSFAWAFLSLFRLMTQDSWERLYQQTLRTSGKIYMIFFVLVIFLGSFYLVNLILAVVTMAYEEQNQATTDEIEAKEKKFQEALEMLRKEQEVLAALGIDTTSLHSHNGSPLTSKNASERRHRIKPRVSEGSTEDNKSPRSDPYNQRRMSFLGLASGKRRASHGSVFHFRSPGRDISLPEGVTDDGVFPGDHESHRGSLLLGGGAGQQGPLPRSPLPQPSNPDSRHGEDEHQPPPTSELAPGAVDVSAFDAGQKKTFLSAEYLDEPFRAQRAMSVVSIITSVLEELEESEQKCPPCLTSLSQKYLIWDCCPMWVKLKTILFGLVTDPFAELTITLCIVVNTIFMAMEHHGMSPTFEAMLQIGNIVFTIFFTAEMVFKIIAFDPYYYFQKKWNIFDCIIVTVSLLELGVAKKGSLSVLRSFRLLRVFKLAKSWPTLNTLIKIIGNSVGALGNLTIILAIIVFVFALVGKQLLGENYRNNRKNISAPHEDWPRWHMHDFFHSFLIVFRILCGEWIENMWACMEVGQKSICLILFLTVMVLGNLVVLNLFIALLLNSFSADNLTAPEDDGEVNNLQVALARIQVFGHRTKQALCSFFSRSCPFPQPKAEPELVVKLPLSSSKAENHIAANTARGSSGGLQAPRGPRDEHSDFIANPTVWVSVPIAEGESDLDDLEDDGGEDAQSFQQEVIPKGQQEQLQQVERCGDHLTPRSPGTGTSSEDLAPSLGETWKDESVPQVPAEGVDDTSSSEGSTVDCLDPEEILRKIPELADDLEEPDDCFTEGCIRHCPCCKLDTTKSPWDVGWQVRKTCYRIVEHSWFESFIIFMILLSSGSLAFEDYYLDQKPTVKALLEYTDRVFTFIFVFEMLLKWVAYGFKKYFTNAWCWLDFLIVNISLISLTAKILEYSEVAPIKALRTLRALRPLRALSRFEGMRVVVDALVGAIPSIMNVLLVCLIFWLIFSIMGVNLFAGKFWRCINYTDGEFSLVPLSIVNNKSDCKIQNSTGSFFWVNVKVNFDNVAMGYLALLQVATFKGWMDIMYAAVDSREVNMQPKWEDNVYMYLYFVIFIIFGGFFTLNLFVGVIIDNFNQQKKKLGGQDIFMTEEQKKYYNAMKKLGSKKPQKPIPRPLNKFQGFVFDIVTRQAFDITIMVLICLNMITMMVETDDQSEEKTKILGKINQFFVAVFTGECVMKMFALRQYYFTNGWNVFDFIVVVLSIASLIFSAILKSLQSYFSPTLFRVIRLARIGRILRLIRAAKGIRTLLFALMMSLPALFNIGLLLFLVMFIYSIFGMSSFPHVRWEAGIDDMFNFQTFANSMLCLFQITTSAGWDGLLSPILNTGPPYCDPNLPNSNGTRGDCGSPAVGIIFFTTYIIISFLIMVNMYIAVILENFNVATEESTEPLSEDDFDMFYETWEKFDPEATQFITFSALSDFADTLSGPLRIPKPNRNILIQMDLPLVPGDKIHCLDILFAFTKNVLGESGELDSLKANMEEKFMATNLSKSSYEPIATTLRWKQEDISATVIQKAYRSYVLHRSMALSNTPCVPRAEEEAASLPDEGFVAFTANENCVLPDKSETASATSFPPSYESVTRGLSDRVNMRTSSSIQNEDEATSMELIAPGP

IC50	Structure (SMILES)
650 nM	O=C1NC[C@@H](C(=O)NC(c2ccc(F)c(Cl)c2)C2Cc3c(Cl)cccc32)N1 (single isomer, unassigned) [Example 70D, (S)-N-((R or S)-(3-chloro-4-fluoro-phenyl)((R or S)-2-chlorobicyclo[4.2.0]-octa-1(6),2,4-trien-7-yl)methyl)-2-oxoimidazolidine-4-carboxamide]
21 nM	O=C1NC[C@@H](C(=O)NC(c2cnc(C(F)(F)F)c(Cl)c2)c2ccc(F)c(C(F)(F)F)n2)N1 (single isomer, unassigned) [Example 14B, (4S)-N-{[R or S)-5-chloro-6-(trifluoro-methyl)pyridin-3-yl][5-fluoro-6-(trifluoro-methyl)pyridin-2-yl]methyl}-2-oxoimidazolidine-4-carboxamide]
3.1 nM	O=C1NC[C@@H](C(=O)NC(c2cnc(C(F)(F)F)c(F)c2)c2ccc(F)c(Cl)c2F)N1 (single isomer, unassigned) [Example 44, (S)-N-((R or S)-(3-chloro-2,4-difluoro-phenyl)(5-fluoro-6-(trifluoromethyl)pyridin-3-yl)methyl)-2-oxoimidazolidine-4-carboxamide]
190 nM	O=C1NC[C@@H](C(=O)NC(CC2CCC(C(F)(F)F)CC2)c2ccc(F)c(Cl)c2F)N1 (single isomer, unassigned) [Example 23D, (S)—N—((R or S)-1-(3-chloro-2,4-difluorophenyl)-2-((cis or trans)-4-(trifluoromethyl)cyclohexyl)ethyl)-2-oxoimidazolidine-4-carboxamide]
1.1 nM	O=C1NC[C@@H](C(=O)NC(c2ccc(F)c(Cl)c2)c2csc(C3(C(F)(F)F)CC3)n2)N1 (single isomer, unassigned) [Example 16A, (S)-N-((R or S)-(3-choro-4-fluoro-phenyl)(2-(1-(trifluoromethyl)cyclopropyl)thiazol-4-yl)methyl)-2-oxoimidazolidine-4-carboxamide]
244 nM	O=C1NC[C@@H](C(=O)NC(c2ccc(Cl)cc2)c2cccc(OC(F)F)n2)N1 (single isomer, unassigned) [Example 74B, (S)-N-((R or S)-(4-chlorophenyl)(6-(difluoromethoxy)pyridin-2-yl)methyl)-2-oxoimidazolidine-4-carboxamide]
81 nM	N#Cc1cccc(C(NC(=O)[C@@H]2CNC(=O)N2)c2ccc(F)c(Cl)c2)n1 (single isomer, unassigned) [Example 12A, (4S)-N-[((R or S)-3-chloro-4-fluorophenyl)(6-cyanopyridin-2-yl)methyl]-2-oxoimidazolidine-4-carboxamide]
1.7 nM	O=C1NC[C@@H](C(=O)NC(c2ccc(OC(F)(F)F)c(Cl)c2)c2cnn(C(F)(F)F)c2)N1 (single isomer, unassigned) [Example 41A, (S)—N—((R or S)-(3-chloro-4-(trifluoromethoxy)phenyl)(1-(trifluoromethyl)-1H-pyrazol-4-yl)-l3-methyl)-2-oxoimidazolidine-4-carboxamide]
1.6 nM	O=C1NC[C@@H](C(=O)NC(c2ccc(F)c(Cl)c2F)C2CCN(C3(C(F)(F)F)CC3)CC2)N1 (single isomer, unassigned) [Example 5A, (S)—N—((R or S)-(3-chloro-2,4-difluorophenyl)(1-(1-(trifluoromethyl)-cyclopropyl)piperidin-4-yl)methyl)-2-oxoimidazolidine-4-carboxamide]
4.2 nM	O=C1NC[C@@H](C(=O)NC(c2ccc(F)c(C(F)F)n2)c2ccc(F)c(Cl)c2F)N1 (single isomer, unassigned) [Example 63A, (S)-N-((R or S)-(3-chloro-2,4-difluorophenyl)(6-(difluoromethyl)-5-fluoropyridin-2-yl)methyl)-2-oxoimidazolidine-4-carboxamide]
203 nM	O=C1NC[C@@H](C(=O)NC(c2ccc(F)c(Cl)c2)c2cc(C(F)(F)F)[nH]n2)N1 (single isomer, unassigned) [Example 4A, (S)—N—((R or S)-(3-chloro-4-fluorophenyl)(5-(trifluoromethyl)-1H-pyrazol-3-yl)methyl)-2-oxoimidazolidine-4-carboxamide]

From patent US20230312528A1, “2-OXO-IMIDAZOLIDINE-4-CARBOXAMIDES AS NAV1.8 INHIBITORS” (Merck Sharp & Dohme LLC, priority 2020, published 2023)
